Laboratory results from a melting point compilation (Tetko et al.; mined from patent text by program, amines drawn as free bases though some values may be those of a salt).

Compared with `C#CC1(O)CCN(C(C)=O)CC1`, `C=Cn1c(=O)c(C#N)c(N2CCN(C(=O)c3cccs3)CC2)c2cccnc21` is higher in melting point: 132 to 134 °C for the first, 228 °C for the second.

Compared with `CC1COc2ccccc2O1` (centres undefined), `CN=C1CSc2ccccc2CN1` is higher in melting point: 86 to 87 °C for the first, 278 to 280 °C for the second.

First: CC(C)=C(C[C@H](N)C(=O)O)C(=O)O
Second: CC(C)(C)OC(=O)NC(C(=O)O)c1ccccc1O (centres undefined)
The melting point of the first is higher: 198 to 199 °C for the first, 125 °C for the second.

First: Cc1c(OCc2ccccc2)ccc2c(=O)cc(N3CCN(c4ccccn4)CC3)oc12
Second: COc1cc(OC)cc(N2CCN(C(=O)Nc3cc(-c4cccnc4)nc4ccccc34)CC2)c1
The melting point of the first is higher: 148 to 149 °C for the first, 95 to 96 °C for the second.

First: CCc1scc(C(=O)OC)c1NC(C)=O
Second: COC(=O)c1ccc2sccc2c1O
The melting point of the first is lower: 85 to 86 °C for the first, 94 to 95 °C for the second.

First: O=C(O)Cc1ccc(CC2(CNS(=O)(=O)c3ccccc3)CCCC2)cc1
Second: O=C(Cl)c1ccc(S(=O)(=O)NC(=O)c2ccccc2)cc1
The melting point of the first is lower: 154 to 156 °C for the first, 180 to 182 °C for the second.

First: CC(C)(C)c1cc(-c2nnc(S(C)(=O)=O)s2)cc(C(C)(C)C)c1O
Second: CC(C)c1cn(C)cc(-c2ccc(Cl)c(C(F)(F)F)c2)c1=O
The melting point of the first is higher: 156 °C for the first, 85 to 87 °C for the second.

First: COCc1nc2c(OCc3ccccc3)cccc2n1C
Second: COc1ccc2c(c1)c1c(n2Cc2ccccc2)CCCC1C(=O)O (centres undefined)
The melting point of the first is lower: 120 to 122 °C for the first, 179 to 183 °C for the second.

Compared with `COc1ccc(C(=O)c2c(C)n3c4c(cccc24)OCC3CN2CCOCC2)cc1` (centres undefined), `CNC(=O)c1ccc(N2CCN(Cc3cnc4c(c3)[nH]c(=O)n3cccc43)CC2)cc1` is higher in melting point: 182 to 189 °C for the first, 286 to 289 °C for the second.

First: COCCN(C1CC(C)(C)Oc2ccc(O)cc21)S(C)(=O)=O (centres undefined)
Second: CC1(C)Oc2ccc(C#N)cc2[C@@H](OC2=CC(=O)OC2)[C@@H]1O (relative stereo)
The melting point of the first is higher: 115 to 117 °C for the first, 111 to 114 °C for the second.

First: CC(C(N)=O)c1ccc(-n2cc(Cl)cn2)c(Cl)c1 (centres undefined)
Second: CCC=C(Cc1ccc(Cl)cc1Cl)n1cncn1
The melting point of the first is higher: 131 to 132 °C for the first, 127 °C for the second.

First: CCOC(=O)N1C(=O)C2(COc3cc4c(cc32)OCCO4)c2ccccc21 (centres undefined)
Second: C#Cc1ccc2c(=O)c(C(=O)OCC)cn(-c3ccc(F)cc3)c2c1
The melting point of the first is lower: 198 to 200 °C for the first, 227 to 229 °C for the second.

First: Oc1nc(-c2ccccc2)cs1
Second: O=C1C(=CO)Cc2c1cnn2Cc1ccccc1
The melting point of the first is higher: 194 to 197 °C for the first, 171 to 172 °C for the second.

First: CCCc1nc(C(O)C(C)C)c(C#N)n1Cc1ccc(-c2ccccc2-c2nnnn2C(c2ccccc2)(c2ccccc2)c2ccccc2)cc1 (centres undefined)
Second: CCNC(=O)NS(=O)(=O)c1ccccc1-c1ccc(Cn2c(CC)nc3c(C)ccnc32)cc1
The melting point of the first is lower: 154 to 155 °C for the first, 240 to 245 °C for the second.

Compared with `CCNc1cc(NS(=O)(=O)c2ccc(N)cc2)nc(N2CCC2)n1`, `Cc1cc(N2CCCC2)c2ccc(I)cc2n1` is lower in melting point: 260 to 262 °C for the first, 99 to 102 °C for the second.

Compared with `CCOC(=O)c1c(N=Cc2ccc([N+](=O)[O-])s2)sc(N=Cc2ccc([N+](=O)[O-])s2)c1C(=O)OCC`, `CCOC(=O)C1=C(C)NC(COC(=O)c2ccccc2)=C(C(=O)OCC)C1c1ccccc1[N+](=O)[O-]` (centres undefined) is lower in melting point: 255 to 257 °C for the first, 156 to 157 °C for the second.

First: COc1cc2c(Nc3ccc(Sc4nccn4C)c(Cl)c3)c(C#N)cnc2cc1F
Second: COc1cc(C2CCN(C[C@@H](C)O)CC2)ccc1Nc1ncc2ccc(-c3cc(Cl)ccc3OC)n2n1
The melting point of the first is higher: 295 to 297 °C for the first, 94 to 108 °C for the second.

First: COc1ccnc(CCc2nc3cc(-c4ccc(NS(=O)(=O)c5ccccc5)cc4)cnc3[nH]2)c1
Second: Cn1c(-c2ccc(-c3cccs3)cc2)cnc1[C@H](Cc1ccccn1)N(C=O)c1cc2cc(Cl)ccc2o1
The melting point of the first is higher: 251 to 253 °C for the first, 110 to 114 °C for the second.

First: CCOCc1nc2c(N)nc3cc(-c4cccc(C(=O)N5CCCC5)c4)cnc3c2n1CC(C)(C)O
Second: CC(C)(C)OC(=O)NCCCCn1c(-c2ccccc2)nc2cnc3ccccc3c21
The melting point of the first is higher: 185 to 187 °C for the first, 158 to 159 °C for the second.

First: CON=C1CN(c2c(F)cc3c(=O)c(C(=O)O)cn(C4CC4)c3c2F)CC12CN(C(=O)OC(C)(C)C)C2
Second: CCn1cc(C(=O)O)c(=O)c2cc(F)c(N3C[C@@H](N)[C@@H](C)C3)c(F)c21 (relative stereo)
The melting point of the first is higher: 255 to 256 °C for the first, 232 to 234 °C for the second.

First: CNC(=O)c1ccc(Cl)cc1
Second: O=C(Nc1ccc(C(F)(F)F)cc1)c1ccc(C=NO)cc1
The melting point of the first is lower: 158 to 161 °C for the first, 221 to 222 °C for the second.

Compared with `CN1C(=O)CC[C@]2(C)c3ccc(-c4c(F)cccc4F)cc3CC[C@@H]12`, `CN1CCC(=O)C(C2c3ccccc3CCc3ccccc32)C1` (centres undefined) is higher in melting point: 125 to 130 °C for the first, 146 to 147 °C for the second.

First: CCCCCCOc1ccc2cc([C@H]3CC[C@H](CCCCCC)CC3)ccc2c1
Second: CCCCCCCCCCCC(=O)c1ccc(-c2ccc(OCC(C)OC(=O)CCCCCC)c(Cl)c2)cc1 (centres undefined)
The melting point of the first is higher: 48 °C for the first, 43.2 to 43.4 °C for the second.

Compared with `O=C(O)c1cc(Cl)c(Cl)cc1C(=O)Nc1cccc(-c2ccnc3c(C(=O)c4cccs4)cnn23)c1`, `Cc1cc(SCc2cc(-c3ccc(C(F)(F)F)cc3)on2)c(Cl)cc1OCC(=O)O` is lower in melting point: greater than 270 °C for the first, 120 to 121 °C for the second.

Compared with `COc1cc(OC)c(F)c(NCc2ccccc2)c1F`, `O=C(CCn1c(=O)c(=O)[nH]c2cc(C(F)(F)F)c(-n3cccc3)cc21)NCc1ccccc1` is higher in melting point: 65 to 66 °C for the first, 234 to 235 °C for the second.

Compared with `O=c1c2ccccc2oc2cc(OCC(O)CCl)cc(O)c12` (centres undefined), `CNC(=O)Oc1ccc2oc3ccccc3c2c1` is higher in melting point: 144 °C for the first, 155 to 156 °C for the second.

First: Fc1ccc(OCc2ccnc3c(Cl)cccc23)cc1
Second: Clc1ccc(Nc2nnc(NCc3ccncc3)c3ccccc23)cc1
The melting point of the first is lower: 144 to 145 °C for the first, 233 to 236 °C for the second.

Compared with `N#Cc1ccc(Nc2nnc(Cc3ccncc3)c3ccccc23)cc1`, `Cc1ccc2c(c1)Nc1ccccc1N=C2N1CCN[C@@H](CCc2ccccc2)C1` is lower in melting point: 228 to 230 °C for the first, 64 to 80 °C for the second.

First: O=c1oc2ccccc2n1CCN1CCc2c([nH]c3ccccc23)C1
Second: Cc1[nH]c2ccccc2c1C(=O)NC1CCN(Cc2ccccc2)CC1
The melting point of the first is lower: 135 to 137 °C for the first, 150 to 153 °C for the second.

Compared with `CS(=O)(=O)OC(c1ccc(C(O)(C(F)(F)F)C(F)(F)F)cc1)(C(F)(F)F)C(F)(F)F`, `CC(C)n1cc(C(=O)C(F)(F)F)c2ccc(C(F)(F)F)cc21` is lower in melting point: 160 °C for the first, 92 to 93 °C for the second.

Compared with `CCn1c(C)nc2cc(C(F)(F)F)c(Cl)c(NC)c21`, `Cc1ccc2nc3ccc(=O)c(Cl)c-3sc2c1` is higher in melting point: 116 to 119 °C for the first, 218 °C for the second.

First: O=C(O)CCCC=C1SC[C@H]2[C@@H]1N(Cc1ccccc1)C(=O)N2Cc1ccccc1
Second: O=S(Cc1ccccc1)c1ccccc1 (centres undefined)
The melting point of the first is lower: 79 to 82 °C for the first, 123 to 126 °C for the second.

First: OC(CCC1CCNCC1)c1cc(C2CCCCC2)nc2ccccc12 (centres undefined)
Second: CCCc1[nH]c2cc(C(=O)OC)ccc2c1C(=O)C1CCCCC1
The melting point of the first is higher: 190 to 191 °C for the first, 136 to 137 °C for the second.

First: Fc1nc(Oc2ccc(CCNc3ncnc4nccnc34)cc2)c(F)c(C(F)(F)F)c1F
Second: COc1ccc(CCCc2nnc(-c3ccc4occc4c3)o2)cc1
The melting point of the first is lower: 103 to 108 °C for the first, 116 to 117 °C for the second.

First: O=C(O)CC1(CNC(=O)c2ccc(CO[N+](=O)[O-])cc2)CCCCC1
Second: COC(=O)C(Cc1cc([N+](=O)[O-])ccc1Cl)C(=O)OC
The melting point of the first is higher: 127 to 128 °C for the first, 72 to 74 °C for the second.

First: CC(F)C1C(=O)NC1CC(=O)OCc1ccccc1 (mixture of isomers)
Second: O=C(O)C1CSC(Cc2ccccc2)N1 (mixture of isomers)
The melting point of the first is lower: 40 to 43 °C for the first, 200 °C for the second.

First: CCOC(=O)/C=C1/CO[C@](C)([C@H]2CC[C@H]3[C@@H](O[Si](C)(C)C(C)(C)C)CCC[C@@]32C)C1
Second: CC(CCCCC(=O)O)C1CCC2C3CCC4CC(O)CCC4(C)C3CC(O)C12C (centres undefined)
The melting point of the first is lower: 101 °C for the first, 191 to 193 °C for the second.

First: CC(C)CNCC(=O)Nc1cccc2c1C(=O)c1c(NC(=O)CNCC(C)C)cccc1C2=O
Second: Cc1cc(Sc2ccc3nc(CCl)n(C)c3n2)cc(C)c1[N+](=O)[O-]
The melting point of the first is higher: 139 to 140 °C for the first, 133 to 135 °C for the second.

First: CN1CC=C(c2c[nH]c3ccc(O)cc23)CC1
Second: CC(=O)N1CC(CCN2CC=C(c3ccccc3)CC2)c2ccccc21 (centres undefined)
The melting point of the first is higher: 182 to 185 °C for the first, 109 to 111 °C for the second.

Compared with `Clc1ccc(OC(c2ccc(Cl)cc2)C(Cl)(Cl)Cl)cc1` (centres undefined), `COc1c(S(=O)(=O)NCc2ccc(Cl)cc2)cc(Br)c2ccc(C)nc12` is higher in melting point: 101 °C for the first, 108 to 110 °C for the second.

First: CC(C)(C)OC(=O)C=C(c1ccc(C#N)cc1)n1ccnc1
Second: CN1CCCC(c2cccc(-n3cnc4cc(C(=O)OCC5CC5)ccc43)c2)C1 (centres undefined)
The melting point of the first is higher: 151 to 153 °C for the first, 111 to 113 °C for the second.

First: NC(=S)c1cn(COCCO)c2ncnc(N)c12
Second: Cc1ccc([N+](=O)[O-])cc1CCl
The melting point of the first is higher: 186 to 188 °C for the first, 56 to 62 °C for the second.

Compared with `ON=Cc1ccc2c(c1)ncn2-c1cccc(N2CCCCC2)c1`, `Fc1ccc(-c2ccn(C3CN4CCC3CC4)c2-c2ccncc2)cc1` (centres undefined) is higher in melting point: 213 to 214 °C for the first, 229 to 230 °C for the second.

Compared with `CCC(=O)NCCC1CCc2ccc3c(c21)NC(=O)CO3` (centres undefined), `O=C1CCC(=NNc2ccc(I)cc2)c2ncccc2N1` is lower in melting point: 216 to 219 °C for the first, 204 to 205 °C for the second.

Compared with `O=C(NCCCc1ccncc1)N(CCC12CC3CC(CC(C3)C1)C2)CC1CCCC1`, `COc1ccccc1N1CCN(C[C@@H](C)N(C(=O)c2ccccc2)C(=O)c2ccccc2)CC1` is lower in melting point: 155 to 158 °C for the first, 115 to 120 °C for the second.

First: Cc1cc(C(N)=O)co1
Second: CCOc1cc(C=O)cc2c1OC(C)(C)C2
The melting point of the first is higher: 158 °C for the first, 33 to 36 °C for the second.

First: N#Cc1c(F)cccc1Nc1c(F)cccc1F
Second: O=C1N[C@H](Cc2ccc(CC(F)(F)C(F)(F)F)cc2)[C@H](c2cccc(Cl)c2)O1 (racemic)
The melting point of the first is higher: 145 to 146 °C for the first, 137 to 138 °C for the second.

First: Cc1noc(-c2cc(-c3ccccc3)c(=O)n3c2-c2sccc2SCC3)n1
Second: CC(CCC(=O)O)(c1ccc(OCc2ccc3ccccc3n2)c(Cl)c1)c1ccc(OCc2ccc3ccccc3n2)c(Cl)c1
The melting point of the first is higher: 183 to 185 °C for the first, 91 to 94 °C for the second.

Compared with `CCC1(CC)c2cc(I)ccc2-c2ccc(C=O)cc21`, `CCCS(=O)(=O)Oc1ccc(-c2nc3cc4c(cc3[nH]2)C(C)(C)CC(=O)N4)cc1` is higher in melting point: 138 to 140 °C for the first, 148 to 156 °C for the second.

With `COc1ccc(-c2cc(=S)n(CC=Cc3ccc(F)cc3F)nc2-c2ccc(OC)cc2)cc1` the melting point was 141 °C.
